Read-outs that look alike come from different tables or passages of the source.

Test [1] addresses T1, mineralocorticoid receptor (Homo sapiens (Human), UniProt P08235). Kind of test: Mineralocorticoid receptor binding test (displacement of 3H-aldosterone, cytosol from Hi5 insect cells). The note with it: reference substance 3H-aldosterone. The method, then: 2. Mineralocorticoid Receptor Binding Test:
The test was carried out as in 1., with the following modifications: cytosol from mineralocorticoid receptor-expressing insect cells (Hi5) was used, and the reference substance was ^3H-aldosterone.

Test [2] deals with T2, androgen receptor (Homo sapiens (Human), UniProt P10275). Kind of test: cell-based. As to conditions: for Androgen receptor Agonism efficacy / Androgen receptor Antagonism efficacy: in-vitro transactivation, PC3 cells; for Androgen receptor Antagonism efficacy: 0.05 nM R1881. The procedure: 6. Determination of Androgenic/Antiandrogenic Action by Means of Transactivation Tests:
The androgenic/antiandrogenic action of the test substances was determined as for the transactivation tests described above.
The following modifications were made: In this case reporter cell lines were used (PC3 cells) that express the androgen receptor, and a reporter construct that contains luciferase under the control of a steroid hormone-responsive promoter.
For determination of the antiandrogenic efficacy, 0.05 nM R1881 was added to the cells, in order to achieve almost maximum stimulation of the reporter gene.

Test [3] deals with T2, androgen receptor. The note with it: for IC50: read-out: Androgen receptor IC50, receptor binding, 3H-testosterone displacement; for Androgen receptor Competition factor: reference substance 3H-testosterone. The procedure: 3. Androgen Receptor Binding Test:
The test was carried out as in 1., with the following modifications: cytosol from androgen receptor-expressing insect cells (Hi5) was used, and the reference substance was ^3H-testosterone.

The target in test [4] is T1, mineralocorticoid receptor. Kind of test: Antimineralocorticoid action by transactivation test (MDCK luciferase reporter cells). The test is classed as cell-based. The note with it: in-vitro transactivation, 1 nM aldosterone; for IC50: read-out: Mineralocorticoid receptor Antagonism IC50. The method, then: 5. Determination of Antimineralocorticoid Action by Means of Transactivation Tests:
The antimineralocorticoid activity of the test substances was determined as for the transactivation tests described above.
The following modifications were undertaken: In this case reporter cell lines were used (MDCK cells) that express the human mineralocorticoid receptor, and transiently contain a reporter construct that contains luciferase under the control of a steroid hormone-responsive promoter.
For determination of antimineralocorticoid efficacy, 1 nM aldosterone (SIGMA A-6628, Lot 22H4033) was added to the cells, to achieve almost maximum stimulation of the reporter gene. Inhibition of the effect indicated a mineralocorticoid-antagonistic action of the substances (Table 2; for comparison, corresponding values for drospirenone (A)).

The target in test [5] is fusion protein from the PR-ligand-binding domain and a Gal4-transactivation domain (Homo sapiens (Human), UniProt P06401). Kind of test: cell-based. The note with it: for Progesterone receptor Agonism efficacy / Progesterone receptor Agonism EC50: in-vitro transactivation, CHO K1 reporter cells; for Progesterone receptor Agonism EC50: 16 hours. The procedure: 4. Determination of Progestational Action by Means of Transactivation Tests:
The test compounds were added eight hours later, and the cells were incubated with the compounds for 16 hours. The tests were carried out in triplicate. At the end of incubation the medium containing the effector was removed and replaced with lysis buffer. After luciferase assay substrate (Promega, #E1501) had been added, the 96-well plates were then put in a microplate luminometer (Pherastar, BMG Labtech), and the luminescence was measured. The IC50 values were evaluated using software for calculating dose-effect relations.

Another test concerns the target progesterone receptor (Homo sapiens (Human), UniProt P06401). The note with it: for Progesterone receptor (PR) Competition factor: CF of 1 = affinity of progesterone, CF >1 lower affinity; for IC50: read-out: Progesterone receptor (PR) IC50, receptor binding, 3H-progesterone displacement; for CF PR/CF MR: ratio of the competition factors CF(PR) and CF(MR).

T2 sequence (P10275 whole entry, species assumed): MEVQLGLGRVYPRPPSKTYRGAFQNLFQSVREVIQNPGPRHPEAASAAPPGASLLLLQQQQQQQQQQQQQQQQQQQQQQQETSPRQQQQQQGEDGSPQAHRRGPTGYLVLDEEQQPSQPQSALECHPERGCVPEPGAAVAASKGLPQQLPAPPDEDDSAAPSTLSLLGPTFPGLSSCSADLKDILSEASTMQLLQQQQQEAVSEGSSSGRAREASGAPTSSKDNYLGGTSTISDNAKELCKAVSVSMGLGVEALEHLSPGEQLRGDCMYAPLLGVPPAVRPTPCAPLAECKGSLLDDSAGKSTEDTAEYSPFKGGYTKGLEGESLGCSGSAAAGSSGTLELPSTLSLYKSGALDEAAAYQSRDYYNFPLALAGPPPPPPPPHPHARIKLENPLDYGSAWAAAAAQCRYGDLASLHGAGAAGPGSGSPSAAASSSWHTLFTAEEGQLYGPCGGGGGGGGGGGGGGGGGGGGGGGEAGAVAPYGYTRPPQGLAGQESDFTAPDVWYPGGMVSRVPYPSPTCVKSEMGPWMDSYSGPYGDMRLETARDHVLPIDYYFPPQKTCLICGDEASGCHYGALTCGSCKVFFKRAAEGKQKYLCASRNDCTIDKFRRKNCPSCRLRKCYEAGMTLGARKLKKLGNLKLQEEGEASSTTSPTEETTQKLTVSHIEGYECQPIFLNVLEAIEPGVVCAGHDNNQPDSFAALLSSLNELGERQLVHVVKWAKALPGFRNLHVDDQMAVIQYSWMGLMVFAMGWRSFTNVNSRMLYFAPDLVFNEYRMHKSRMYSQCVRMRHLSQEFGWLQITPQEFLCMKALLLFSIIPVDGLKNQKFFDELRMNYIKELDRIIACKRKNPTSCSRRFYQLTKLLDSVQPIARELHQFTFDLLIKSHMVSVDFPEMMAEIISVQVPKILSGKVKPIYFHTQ
Sequence of fusion protein from the PR-ligand-binding domain and a Gal4-transactivation domain (P06401 679-913): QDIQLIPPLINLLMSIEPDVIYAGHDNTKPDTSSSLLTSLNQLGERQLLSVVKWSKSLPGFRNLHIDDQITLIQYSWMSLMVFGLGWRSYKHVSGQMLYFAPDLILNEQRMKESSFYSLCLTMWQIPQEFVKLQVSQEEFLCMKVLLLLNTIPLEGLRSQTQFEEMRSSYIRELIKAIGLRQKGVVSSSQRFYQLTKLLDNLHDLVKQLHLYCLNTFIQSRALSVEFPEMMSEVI
T1 sequence (P08235 whole entry): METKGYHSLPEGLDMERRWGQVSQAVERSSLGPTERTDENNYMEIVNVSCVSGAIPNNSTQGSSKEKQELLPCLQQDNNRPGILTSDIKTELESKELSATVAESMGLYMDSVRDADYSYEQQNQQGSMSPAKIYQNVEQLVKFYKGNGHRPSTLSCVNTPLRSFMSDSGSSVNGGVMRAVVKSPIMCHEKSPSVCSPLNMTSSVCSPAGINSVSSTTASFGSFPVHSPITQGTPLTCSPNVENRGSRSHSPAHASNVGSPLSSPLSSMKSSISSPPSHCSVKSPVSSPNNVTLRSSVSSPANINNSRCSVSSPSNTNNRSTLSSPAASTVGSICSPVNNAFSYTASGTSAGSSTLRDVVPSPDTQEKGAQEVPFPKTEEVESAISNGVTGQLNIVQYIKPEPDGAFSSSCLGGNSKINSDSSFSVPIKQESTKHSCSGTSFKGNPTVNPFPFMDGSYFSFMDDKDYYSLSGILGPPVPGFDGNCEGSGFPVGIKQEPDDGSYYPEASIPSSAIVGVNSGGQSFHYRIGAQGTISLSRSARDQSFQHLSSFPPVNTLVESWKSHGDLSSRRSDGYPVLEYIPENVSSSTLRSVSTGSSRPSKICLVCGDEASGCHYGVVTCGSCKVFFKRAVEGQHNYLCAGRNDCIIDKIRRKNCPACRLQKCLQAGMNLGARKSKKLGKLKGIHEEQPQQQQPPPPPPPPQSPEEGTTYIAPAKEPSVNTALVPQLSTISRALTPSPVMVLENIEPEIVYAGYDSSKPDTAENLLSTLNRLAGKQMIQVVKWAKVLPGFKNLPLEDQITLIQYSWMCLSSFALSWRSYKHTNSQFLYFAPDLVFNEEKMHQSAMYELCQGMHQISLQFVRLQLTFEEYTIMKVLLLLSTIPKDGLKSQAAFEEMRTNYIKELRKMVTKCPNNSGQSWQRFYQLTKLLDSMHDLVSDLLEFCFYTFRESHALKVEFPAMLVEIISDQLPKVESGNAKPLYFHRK
Sequence of progesterone receptor (P06401 whole entry, species assumed): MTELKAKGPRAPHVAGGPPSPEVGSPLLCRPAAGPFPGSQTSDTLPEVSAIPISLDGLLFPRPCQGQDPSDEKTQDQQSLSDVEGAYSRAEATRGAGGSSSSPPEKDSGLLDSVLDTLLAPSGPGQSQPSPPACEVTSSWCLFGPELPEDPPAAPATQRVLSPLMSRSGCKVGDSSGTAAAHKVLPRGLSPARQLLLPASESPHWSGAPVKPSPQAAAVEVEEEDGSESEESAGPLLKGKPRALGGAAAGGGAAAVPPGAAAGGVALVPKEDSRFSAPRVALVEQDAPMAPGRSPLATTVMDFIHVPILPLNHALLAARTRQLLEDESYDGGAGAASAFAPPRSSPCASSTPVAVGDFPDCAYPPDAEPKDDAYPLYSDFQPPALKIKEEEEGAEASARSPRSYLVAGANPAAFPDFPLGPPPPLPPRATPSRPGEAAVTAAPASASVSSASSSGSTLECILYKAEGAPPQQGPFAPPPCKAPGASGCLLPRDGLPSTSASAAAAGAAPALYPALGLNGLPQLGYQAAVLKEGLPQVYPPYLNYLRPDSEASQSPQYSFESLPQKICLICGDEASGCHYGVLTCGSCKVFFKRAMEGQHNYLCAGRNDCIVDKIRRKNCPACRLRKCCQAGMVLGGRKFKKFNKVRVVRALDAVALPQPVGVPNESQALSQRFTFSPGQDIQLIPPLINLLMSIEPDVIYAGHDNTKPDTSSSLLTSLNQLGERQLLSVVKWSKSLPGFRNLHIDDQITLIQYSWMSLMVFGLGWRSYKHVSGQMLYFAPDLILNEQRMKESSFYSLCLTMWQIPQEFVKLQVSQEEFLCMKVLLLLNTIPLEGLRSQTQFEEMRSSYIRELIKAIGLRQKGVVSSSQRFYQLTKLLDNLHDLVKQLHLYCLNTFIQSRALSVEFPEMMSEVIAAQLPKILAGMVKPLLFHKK
Description for progesterone receptor: Progesterone Receptor Binding Test:
Using cytosol from progesterone receptor-expressing insect cells (Hi5), competitive binding to the progesterone receptor was determined from the ability to displace ^3H-progesterone as reference substance from the receptor.

With `C[C@]12CC[C@H]3[C@@H](C=CC4=CC(=O)CC[C@@H]43)[C@@H]1CC[C@@]21C=CC(=O)O1` (stereo in doubt) [Example 1, 17β-Hydroxy-19-nor-17α-pregna-4,6,20(Z)-trien-3-one-21-carboxylic acid γ-lactone], the “Mineralocorticoid receptor (MR) Competition factor” value in test [1] turned out to be 33.0. Further, at androgen receptor [2], the EC50 amounted to 130 nM, the concentration for half-maximal inhibition (IC50) amounted to 1000 nM, the “Androgen receptor Agonism efficacy” value stood at 44.27% and the “Androgen receptor Antagonism efficacy” value was determined as 5%. Further, at androgen receptor [3], the IC50 was 10000 nM and the “Androgen receptor Competition factor” value came out at 1000.0. Besides, in test [4], the “Mineralocorticoid receptor Antagonism efficacy” value is on record as 93.2% and the IC50 is 870 nM.
As for `C[C@@H]1CC2=CC(=O)CC[C@@H]2[C@H]2CC[C@@]3(C)[C@@H](CC[C@@]34C=CC(=O)O4)[C@@H]21` (stereo in doubt) [Example 2A, 17β-Hydroxy-7α-methyl-19-nor-17α-pregna-4,20(Z)-dien-3-one-21-carboxylic acid γ-lactone], the “Mineralocorticoid receptor (MR) Competition factor” value in test [1] is given as 7.6. Also, in test [5], a half-maximal effect (EC50) was put at 220 nM and the “Progesterone receptor Agonism efficacy” value was found to be 44.4%. In addition, on progesterone receptor, the “Progesterone receptor (PR) Competition factor” value was found to be 8.33 and the IC50 stood at 310 nM. Further, in test [4], the “Mineralocorticoid receptor Antagonism efficacy” value is reported as 129.8% and the IC50 was 180 nM.
For `CC[C@@H]1CC2=CC(=O)CC[C@@H]2[C@H]2CC[C@@]3(C)[C@@H](CC[C@@]34C=CC(=O)O4)[C@H]12` (stereo in doubt) [Example 3A, 17β-Hydroxy-7α-ethyl-19-nor-17α-pregna-4,20(Z)-dien-3-one-21-carboxylic acid γ-lactone], the “Mineralocorticoid receptor (MR) Competition factor” value in test [1] is on record as 8.7. In test [5], a half-maximal response (EC50) required 780 nM and the “Progesterone receptor Agonism efficacy” value is listed as 16.2%. Also, on androgen receptor [2], the EC50 came to 25 nM, 11 nM corresponded to half-maximal inhibition (IC50), the “Androgen receptor Agonism efficacy” value came to 30.25% and the “Androgen receptor Antagonism efficacy” value came out at 41.26%. At progesterone receptor, the “Progesterone receptor (PR) Competition factor” value stood at 54.22, the “CF PR/CF MR” value is given as 6.23 and the concentration for half-maximal inhibition (IC50) was 1300 nM. Moreover, at androgen receptor [3], the IC50 is 89 nM and the “Androgen receptor Competition factor” value is recorded as 2.8. Further, in test [4], the “Mineralocorticoid receptor Antagonism efficacy” value is on record as 55.9% and the IC50 came out at 360 nM.
Turning to `C=C[C@@H]1CC2=CC(=O)CC[C@@H]2[C@H]2CC[C@@]3(C)[C@@H](CC[C@@]34C=CC(=O)O4)[C@@H]21` (stereo in doubt) [Example 4A, 17β-Hydroxy-7α-vinyl-19-nor-17α-pregna-4,20(Z)-dien-3-one-21-carboxylic acid γ-lactone], in test [1], the “Mineralocorticoid receptor (MR) Competition factor” value was found to be 18.7. For the same molecule, in test [5], the midpoint of the response, the EC50, lay at 140 nM and the “Progesterone receptor Agonism efficacy” value is recorded as 67.5%. Moreover, at androgen receptor [2], the 50% effective concentration (EC50) was 13 nM, the concentration for half-maximal inhibition (IC50) came out at 1000 nM, the “Androgen receptor Agonism efficacy” value is recorded as 53.6% and the “Androgen receptor Antagonism efficacy” value was 5%. In addition, on progesterone receptor, the “Progesterone receptor (PR) Competition factor” value worked out at 27.47, the “CF PR/CF MR” value is given as 1.47 and the half-maximal inhibitory concentration (IC50) was 760 nM. Moreover, on androgen receptor [3], the half-maximal inhibitory concentration (IC50) amounted to 130 nM and the “Androgen receptor Competition factor” value is 4.7. Moreover, in test [4], the “Mineralocorticoid receptor Antagonism efficacy” value was 120.0% and the IC50 is 28 nM.
As for `C[C@]12CC[C@H]3[C@@H](CCC4=CC(=O)CC[C@@H]43)[C@@H]1CC1(CC1)[C@@]21C=CC(=O)O1` (stereo in doubt) [Example 5, 16,16-(1,2-Ethanediyl)-17β-hydroxy-19-nor-17α-pregna-4,20(Z)-dien-3-one-21-carboxylic acid γ-lactone], the “Mineralocorticoid receptor (MR) Competition factor” value in test [1] was 12.7. Also, in test [5], the response was half-maximal at 13 nM (EC50) and the “Progesterone receptor Agonism efficacy” value was determined as 46.9%. For the same molecule, at androgen receptor [2], the response was half-maximal at 140 nM (EC50), the half-inhibitory concentration (IC50) turned out to be 1000 nM, the “Androgen receptor Agonism efficacy” value amounted to 37.8% and the “Androgen receptor Antagonism efficacy” value amounted to 5%. In addition, at progesterone receptor, the “Progesterone receptor (PR) Competition factor” value is given as 3.31, the “CF PR/CF MR” value turned out to be 0.26 and the IC50 turned out to be 110 nM. At androgen receptor [3], the IC50 came to 310 nM and the “Androgen receptor Competition factor” value worked out at 33.8. Also, in test [4], the “Mineralocorticoid receptor Antagonism efficacy” value worked out at 73.1% and the half-inhibitory concentration (IC50) came to 840 nM.
Consider `CC[C@]12CC[C@H]3[C@@H](CCC4=CC(=O)CC[C@@H]43)[C@@H]1CC[C@@]21C=CC(=O)O1` (stereo in doubt) [Example 6, 17β-Hydroxy-18-methyl-19-nor-17α-pregna-4,20(Z)-dien-3-one-21-carboxylic acid γ-lactone], for which the “Mineralocorticoid receptor (MR) Competition factor” value in test [1] worked out at 2.4. Moreover, on androgen receptor [2], the concentration giving a half-maximal response (EC50) was 53 nM, the IC50 worked out at 19 nM, the “Androgen receptor Agonism efficacy” value is given as 59.8% and the “Androgen receptor Antagonism efficacy” value is listed as 33.8%. Also, on progesterone receptor, the “Progesterone receptor (PR) Competition factor” value came out at 3.07, the “CF PR/CF MR” value is listed as 1.28 and the IC50 is 45 nM. Besides, at androgen receptor [3], the half-maximal inhibitory concentration (IC50) turned out to be 28 nM and the “Androgen receptor Competition factor” value amounted to 3.4. For the same molecule, in test [4], the “Mineralocorticoid receptor Antagonism efficacy” value stood at 109.6% and the IC50 came out at 12 nM.
As to `C[C@]12CCC(=O)C=C1[C@@H]1C[C@@H]1[C@H]1[C@@H]3[C@@H]4C[C@@H]4[C@@]4(CCC(=O)O4)[C@@]3(C)CC[C@@H]12` [A, 6β,7β;15γ,16β-dimethylene-3-oxo-17-pregn-4-ene-21,17β-carbolactone, reference compound], the “Progesterone receptor Agonism efficacy” value in test [5] came to 72.2%. Further, the “Mineralocorticoid receptor Antagonism efficacy” value in test [4] is given as 64.1%.
For `CC[C@]12CC[C@H]3[C@@H](C[C@@H](CO)C4=CC(=O)CC[C@@H]43)[C@@H]1CC[C@@]21C=CC(=O)O1` [Example 15], the “Progesterone receptor Agonism EC50” value in test [5] was “inactive”. Besides, at androgen receptor [2], the EC50 came to 1000 nM; the midpoint of inhibition, the IC50, lay at 1000 nM; the “Androgen receptor Agonism efficacy” value was 5%; the “Androgen receptor Antagonism efficacy” value is 5%. Moreover, in test [4], the “Mineralocorticoid receptor Antagonism IC50” value is “inactive”.
As for `CC[C@]12CC[C@H]3[C@@H](CC4(CC4)C4=CC(=O)CC[C@@H]43)[C@@H]1CC[C@@]21C=CC(=O)O1` [Example 16, 6,6-(1,2-Ethanediyl)-17β-hydroxy-18-methyl-19-nor-17α-pregna-4,20(Z)-dien-3-one-21-carboxylic acid γ-lactone], at androgen receptor [2], the EC50 came out at 1.1 nM, the concentration for half-maximal inhibition (IC50) turned out to be 1000 nM, the “Androgen receptor Agonism efficacy” value came to 91.19% and the “Androgen receptor Antagonism efficacy” value was determined as 5%. In addition, in test [4], the “Mineralocorticoid receptor Antagonism efficacy” value came to 107.9% and the IC50 was found to be 75 nM.
Consider `C[C@]12CC[C@H]3[C@@H](C[C@@H](CO)C4=CC(=O)CC[C@@H]43)[C@@H]1CC[C@@]21C=CC(=O)O1` [Example 17, 17β-Hydroxy-6β-hydroxymethylene-19-nor-17α-pregna-4,20(Z)-dien-3-one-21-carboxylic acid γ-lactone], for which the “Progesterone receptor Agonism EC50” value in test [5] was “inactive”. For the same molecule, the “Mineralocorticoid receptor Antagonism IC50” value in test [4] is “inactive”.
Take `C[C@]12CC[C@H]3[C@@H](CC4(CC4)C4=CC(=O)CC[C@@H]43)[C@@H]1CC[C@@]21C=CC(=O)O1` [Example 18, 6,6-(1,2-Ethanediyl)-17β-hydroxy-19-nor-17α-pregna-4,20(Z)-dien-3-one-21-carboxylic acid γ-lactone]: at androgen receptor [2], the concentration giving a half-maximal response (EC50) is 3.7 nM, the concentration for half-maximal inhibition (IC50) worked out at 1000 nM, the “Androgen receptor Agonism efficacy” value is given as 87.91% and the “Androgen receptor Antagonism efficacy” value is recorded as 5%. In test [4], the “Mineralocorticoid receptor Antagonism efficacy” value stood at 89.3% and the IC50 worked out at 520 nM.

Values taken from patent US8937058B2, “17-hydroxy-19-nor-21-carboxylic acid-steroid γ-lactone derivative, use thereof, and medicament containing the derivative” (priority 2007, dated 2015).
